Converted amounts (≈) assume the structure as drawn.
Assays:
Format in all cases: functional
[1] = test system: Staphylococcus epidermidis; assay: Antibacterial activity against methicillin-sensitive Staphylococcus epidermidis isolate cpu0315 after 18 to 20 hrs by agar dilution method
[2] = test system: Staphylococcus aureus; assay: Antibacterial activity against methicillin-resistant Staphylococcus aureus isolate cpu1098 after 18 to 20 hrs by agar dilution method
[3] = test system: Mycoplasma; assay: Antimicrobial activity against Mycoplasma by serial two fold dilution assay
[4] = test system: Staphylococcus aureus; assay: Antibacterial activity against methicillin-sensitive Staphylococcus aureus isolate cpu0587 after 18 to 20 hrs by agar dilution method
[5] = test system: Staphylococcus aureus; assay: Antibacterial activity against methicillin-sensitive Staphylococcus aureus isolate cpu1344 after 18 to 20 hrs by agar dilution method
[6] = test system: Staphylococcus epidermidis; assay: Antibacterial activity against methicillin-resistant Staphylococcus epidermidis isolate cpu3569 after 18 to 20 hrs by agar dilution method
[7] = test system: Staphylococcus aureus; assay: Antibacterial activity against methicillin-resistant Staphylococcus aureus isolate cpu0446 after 18 to 20 hrs by agar dilution method
[8] = test system: Staphylococcus epidermidis; assay: Antibacterial activity against methicillin-resistant Staphylococcus epidermidis isolate cpu2623 after 18 to 20 hrs by agar dilution method
[9] = test system: Staphylococcus aureus; assay: Antibacterial activity against methicillin-sensitive Staphylococcus aureus isolate cpu0211 after 18 to 20 hrs by agar dilution method
[10] = test system: Staphylococcus aureus; assay: Antibacterial activity against methicillin-sensitive Staphylococcus aureus isolate cpu1044 after 18 to 20 hrs by agar dilution method
[11] = test system: Staphylococcus aureus; assay: Antibacterial activity against methicillin-resistant Staphylococcus aureus isolate cpu3256 after 18 to 20 hrs by agar dilution method
[12] = test system: Staphylococcus epidermidis; assay: Antibacterial activity against methicillin-resistant Staphylococcus epidermidis isolate cpu3889 after 18 to 20 hrs by agar dilution method
[13] = test system: Staphylococcus epidermidis; assay: Antibacterial activity against methicillin-sensitive Staphylococcus epidermidis isolate cpu1561 after 18 to 20 hrs by agar dilution method
[14] = test system: Staphylococcus epidermidis; assay: Antibacterial activity against methicillin-sensitive Staphylococcus epidermidis isolate cpu0347 after 18 to 20 hrs by agar dilution method
[15] = test system: Staphylococcus epidermidis; assay: Antibacterial activity against methicillin-sensitive Staphylococcus epidermidis isolate cpu2089 after 18 to 20 hrs by agar dilution method
[16] = test system: Staphylococcus epidermidis; assay: Antibacterial activity against methicillin-resistant Staphylococcus epidermidis isolate cpu2736 after 18 to 20 hrs by agar dilution method
[17] = test system: Staphylococcus aureus; assay: Antibacterial activity against methicillin-resistant Staphylococcus aureus isolate cpu0887 after 18 to 20 hrs by agar dilution method
[18] = test system: Staphylococcus epidermidis; assay: Ratio of amoxicillin MIC to compound MIC for methicillin-sensitive Staphylococcus epidermidis isolate cpu2089
[19] = test system: Staphylococcus aureus; assay: Ratio of amoxicillin MIC to compound MIC for methicillin-sensitive Staphylococcus aureus isolate cpu1044
[20] = test system: Staphylococcus aureus; assay: Ratio of amoxicillin MIC to compound MIC for methicillin-sensitive Staphylococcus aureus isolate cpu0211
[21] = test system: Staphylococcus epidermidis; assay: Ratio of amoxicillin MIC to compound MIC for methicillin-sensitive Staphylococcus epidermidis isolate cpu0347
[22] = test system: Staphylococcus epidermidis; assay: Ratio of amoxicillin MIC to compound MIC for methicillin-sensitive Staphylococcus epidermidis isolate cpu0315
[23] = test system: Staphylococcus epidermidis; assay: Ratio of amoxicillin MIC to compound MIC for methicillin-sensitive Staphylococcus epidermidis isolate cpu1561
[24] = test system: Staphylococcus aureus; assay: Ratio of amoxicillin MIC to compound MIC for methicillin-sensitive Staphylococcus aureus isolate cpu0587
[25] = test system: Staphylococcus aureus; assay: Ratio of amoxicillin MIC to compound MIC for methicillin-sensitive Staphylococcus aureus isolate cpu1344
[26] = test system: Brachyspira pilosicoli; assay: Antibacterial activity against Brachyspira pilosicoli

| SMILES | MIC [1] | MIC [2] | MIC [4] | MIC [5] | MIC [6] | MIC [7] | MIC [8] | MIC [9] | MIC [10] | MIC [11] | MIC [12] | MIC [13] | MIC [14] | MIC [15] | MIC [16] | MIC [17] | further results |
| --- | --- | --- | --- | --- | --- | --- | --- | --- | --- | --- | --- | --- | --- | --- | --- | --- | --- |
| C=C[C@]1(C)C[C@@H](OC(=O)CSCCN(CC)CC)[C@]2(C)[C@H](C)CC[C@]3(CCC(=O)[C@H]32)[C@@H](C)[C@@H]1O [TIAMULIN] | 0.0625 µg/mL (≈ 0.127 µM) | 2 µg/mL (≈ 4.05 µM) | 8 µg/mL (≈ 16.2 µM) | 2 µg/mL (≈ 4.05 µM) | 0.25 µg/mL (≈ 0.506 µM) | 2 µg/mL (≈ 4.05 µM) | 1 µg/mL (≈ 2.03 µM) | 2 µg/mL (≈ 4.05 µM) | 8 µg/mL (≈ 16.2 µM) | 2 µg/mL (≈ 4.05 µM) | 1 µg/mL (≈ 2.03 µM) | 0.0625 µg/mL (≈ 0.127 µM) | 0.5 µg/mL (≈ 1.01 µM) | 0.5 µg/mL (≈ 1.01 µM) | 0.0625 µg/mL (≈ 0.127 µM) | 0.5 µg/mL (≈ 1.01 µM) | MIC [3]: < 1 µg/mL |
| C=C[C@]1(C)C[C@@H](OC(=O)CSCc2csc(NC(=O)CN(CC)CC)n2)[C@]2(C)[C@H](C)CC[C@]3(CCC(=O)[C@H]32)[C@@H](C)[C@@H]1O | 0.25 µg/mL (≈ 0.403 µM) | 0.5 µg/mL (≈ 0.807 µM) | 8 µg/mL (≈ 12.9 µM) | 0.25 µg/mL (≈ 0.403 µM) | 0.25 µg/mL (≈ 0.403 µM) | 0.5 µg/mL (≈ 0.807 µM) | 0.25 µg/mL (≈ 0.403 µM) | 1 µg/mL (≈ 1.61 µM) | 1 µg/mL (≈ 1.61 µM) | 2 µg/mL (≈ 3.23 µM) | 2 µg/mL (≈ 3.23 µM) | 0.25 µg/mL (≈ 0.403 µM) | 0.25 µg/mL (≈ 0.403 µM) | 0.25 µg/mL (≈ 0.403 µM) | 0.25 µg/mL (≈ 0.403 µM) | 0.25 µg/mL (≈ 0.403 µM) |  |
| C=C[C@]1(C)C[C@@H](OC(=O)CSCc2csc(NC(=O)CN3CCCCC3)n2)[C@]2(C)[C@H](C)CC[C@]3(CCC(=O)[C@H]32)[C@@H](C)[C@@H]1O | 0.0625 µg/mL (≈ 0.0989 µM) | 0.25 µg/mL (≈ 0.396 µM) | 2 µg/mL (≈ 3.17 µM) | 0.0625 µg/mL (≈ 0.0989 µM) | 0.0625 µg/mL (≈ 0.0989 µM) | 0.5 µg/mL (≈ 0.791 µM) | 0.0625 µg/mL (≈ 0.0989 µM) | 0.125 µg/mL (≈ 0.198 µM) | 0.125 µg/mL (≈ 0.198 µM) | 0.25 µg/mL (≈ 0.396 µM) | 0.0625 µg/mL (≈ 0.0989 µM) | 0.0625 µg/mL (≈ 0.0989 µM) | 0.0625 µg/mL (≈ 0.0989 µM) | 0.125 µg/mL (≈ 0.198 µM) | 0.0625 µg/mL (≈ 0.0989 µM) | 0.0625 µg/mL (≈ 0.0989 µM) | Ratio [18]: 8; Ratio [19]: 8; Ratio [20]: 8; Ratio [21]: 8; Ratio [22]: 8; Ratio [23]: 8; Ratio [24]: 8; Ratio [25]: 8 |
| CC1(C)S[C@@H]2[C@H](NC(=O)[C@H](N)c3ccc(O)cc3)C(=O)N2[C@H]1C(=O)O [AMOXICILLIN] | 0.125 µg/mL (≈ 0.342 µM) | 4 µg/mL (≈ 10.9 µM) | 2 µg/mL (≈ 5.47 µM) | 1 µg/mL (≈ 2.74 µM) | 8 µg/mL (≈ 21.9 µM) | 4 µg/mL (≈ 10.9 µM) | 8 µg/mL (≈ 21.9 µM) | 4 µg/mL (≈ 10.9 µM) | 1 µg/mL (≈ 2.74 µM) | 8 µg/mL (≈ 21.9 µM) | 8 µg/mL (≈ 21.9 µM) | 0.125 µg/mL (≈ 0.342 µM) | 8 µg/mL (≈ 21.9 µM) | 0.125 µg/mL (≈ 0.342 µM) | 0.125 µg/mL (≈ 0.342 µM) | 0.125 µg/mL (≈ 0.342 µM) |  |
| C=C[C@]1(C)C[C@@H](OC(=O)CSCc2csc(NC(=O)CN(CCC)CCC)n2)[C@]2(C)[C@H](C)CC[C@]3(CCC(=O)[C@H]32)[C@@H](C)[C@@H]1O | 8 µg/mL (≈ 12.3 µM) | 1 µg/mL (≈ 1.54 µM) | 0.5 µg/mL (≈ 0.772 µM) | 1 µg/mL (≈ 1.54 µM) | 4 µg/mL (≈ 6.17 µM) | 0.5 µg/mL (≈ 0.772 µM) | 0.5 µg/mL (≈ 0.772 µM) | 0.5 µg/mL (≈ 0.772 µM) | 0.5 µg/mL (≈ 0.772 µM) | 1 µg/mL (≈ 1.54 µM) | 2 µg/mL (≈ 3.09 µM) | 4 µg/mL (≈ 6.17 µM) | 0.5 µg/mL (≈ 0.772 µM) | 0.5 µg/mL (≈ 0.772 µM) | 2 µg/mL (≈ 3.09 µM) | 0.5 µg/mL (≈ 0.772 µM) |  |
| C=C[C@]1(C)C[C@@H](OC(=O)CSC(C)(C)CNC(=O)[C@H](N)C(C)C)[C@]2(C)[C@H](C)CC[C@]3(CCC(=O)[C@H]32)[C@@H](C)[C@@H]1O [VALNEMULIN] |  |  |  |  |  |  |  |  |  |  |  |  |  |  |  |  | MIC [26]: 0.03 µg/mL (≈ 0.0531 µM) |
